For assay [1], the target named is T1, HCV NS3/4A protease complex (BMS strain) (UniProt P27958).
T1 construct: other: HCV NS3/4A enzyme assay; said of H77 and J4L6S; fused on or other part: Three-lysine solubilising tail at the NS4A C-terminus and a His tag from pET21b (Ni-NTA purification), for the H77 and J4L6S constructs
In words: FRET peptide assay to monitor HCV NS3/4A proteolytic activity, BMS strain. The assay is classed as biochemical, Hepatitis C virus (genotype 1a). The note with it: read-out: IC50 Range; HCV NS3/4A enzyme assay; Table 1. The source says: HCV NS3 protease complexes, derived from the BMS strain, H77 strain or J4L6S strain, were generated, as described below. These purified recombinant proteins were generated for use in a homogeneous assay (see below) to provide an indication of how effective compounds of the present disclosure would be in inhibiting HCV NS3 proteolytic activity.
Serum from an HCV-infected patient was obtained from Dr. T. Wright, San Francisco Hospital. An engineered full-length cDNA (compliment deoxyribonucleic acid) template of the HCV genome (BMS strain) was constructed from DNA fragments obtained by reverse transcription-PCR (RT-PCR) of serum RNA (ribonucleic acid) and using primers selected on the basis of homology between other genotype 1a strains. From the determination of the entire genome sequence, a genotype 1a was assigned to the HCV isolate according to the classification of Simmonds et al. (See P Simmonds, K A Rose, S Graham, S W Chan, F McOmish, B C Dow, E A Follett, P L Yap and […] Marsden, J. Clin. Microbiol., 31(6), 1493-1503 (1993)). […] The infectious clones, H77 (1a genotype) and J4L6S (1b genotype) were obtained from R. Purcell (NIH) and the sequences are published in Genbank (AAB67036, see Yanagi, M., Purcell, R. H., Emerson, S. U. and Bukh, J. Proc. Natl. Acad. Sci. U.S.A. 94(16), 8738-8743 (1997); AF054247, see Yanagi, M., St Claire, M., Shapiro, M., Emerson, S. U., Purcell, R. H. and Bukh, J, Virology 244 (1), 161-172. (1998)).
NS3/4A protease complex-containing fractions were pooled and loaded on a desalting column Superdex-S200 pre-equilibrated with buffer D (25 mM HEPES, pH 7.5, 20% glycerol, 300 mM NaCl, 0.2% Triton X-100, 10 mM βME). Sample was loaded at a flow rate of 1 mL/min. NS3/4A protease complex-containing fractions were pooled and concentrated to approximately 0.5 mg/ml. The purity of the NS3/4A protease complexes, derived from the BMS, H77 and J4L6S strains, were judged to be greater than 90% by SDS-PAGE and mass spectrometry analyses. The enzyme was stored at −80° C., thawed on ice and diluted prior to use in assay buffer.
The purpose of this in vitro assay was to measure the inhibition of HCV NS3 protease complexes, derived from the BMS strain, H77 strain or J4L6S strain, as described above, by compounds of the present disclosure. This assay provides an indication of how effective compounds of the present disclosure would be in inhibiting HCV NS3 proteolytic activity.
In order to monitor HCV NS3/4A protease activity, an NS3/4A peptide substrate was used. The substrate was RET S1 (Resonance Energy Transfer Depsipeptide Substrate; AnaSpec, Inc. cat # 22991) (FRET peptide), described by Taliani et al. in Anal. Biochem. 240(2):60-67 (1996). The sequence of this peptide is loosely based on the NS4A/NS4B natural cleavage site for the HCV NS3 protease except there is an ester linkage rather than an amide bond at the cleavage site. The peptide also contains a fluorescence donor, EDANS, near one end of the peptide and an acceptor, DABCYL, near the other end. The fluorescence of the peptide is quenched by […] resonance energy transfer (RET) between the donor and the acceptor, but as the NS3 protease cleaves the peptide the products are released from RET quenching and the fluorescence of the donor becomes apparent.
The peptide substrate was incubated with one of the three recombinant NS3/4A protease complexes, in the absence or presence of a compound of the present disclosure. The inhibitory effects of a compound were determined by monitoring the formation of fluorescent reaction product in real time using a Cytofluor Series 4000.
Assay buffer: 50 mM HEPES, pH 7.5; 0.15 M NaCl; 0.1% Triton; 15% Glycerol; 10 mM βME. Substrate: 2 μM final concentration (from a 2 mM stock solution in DMSO stored at −20° C.). HCV NS3/4A protease type 1a (1b), 2-3 nM final concentration (from a 5 μM stock solution in 25 mM HEPES, pH 7.5, 20% glycerol, 300 mM NaCl, 0.2% Triton-X100, 10 mM βME). […]

Assay [2] deals with HCV replicon in HUH-7 cells. Kind of assay: HCV replicon FRET assay. Format: cell-based, Hepatitis C virus (strain 1b). The note with it: Table 1. An excerpt:
An HCV replicon whole cell system was established as described by Lohmann V, Korner F, Koch J, Herian U, Theilmann L, Bartenschlager R., Science 285(5424): 110-3 (1999). This system enabled us to evaluate the effects of our HCV Protease compounds on HCV RNA replication. Briefly, using the HCV strain 1b sequence described in the Lohmann paper (Assession number: AJ238799), an HCV cDNA was synthesized by Operon Technologies, Inc. (Alameda, Calif.), and the full-length replicon was then assembled in plasmid pGem9zf(+) (Promega, Madison, Wis.) using standard molecular biology techniques. The replicon consists of (i) the HCV 5′ UTR fused to the first 12 amino acids of the capsid protein, (ii) the neomycin phosphotransferase gene (neo), (iii) the IRES from encephalomyocarditis virus (EMCV), and (iv) HCV NS3 to NS5B genes and the HCV 3′ UTR. Plasmid DNAs were linearized with ScaI and RNA transcripts were synthesized in vitro using the T7 MegaScript transcription kit (Ambion, Austin, Tex.) according to manufacturer's directions. In vitro transcripts of the cDNA were transfected into the human hepatoma cell line, HUH-7. […] Resulting cell lines were characterized for positive and negative strand RNA production and protein production over time.
The HCV replicon FRET assay was developed to monitor the inhibitory effects of compounds described in the disclosure on HCV viral replication. HUH-7 cells, constitutively expressing the HCV replicon, were grown in Dulbecco's Modified Eagle Media (DMEM) (Gibco-BRL) containing 10% Fetal calf serum (FCS) (Sigma) and 1 mg/ml G418 (Gibco-BRL). Cells were seeded the night before (1.5×10^4 cells/well) in 96-well tissue-culture sterile plates. Compound and no compound controls were prepared in DMEM containing 4% FCS, 1:100 Penicillin/Streptomysin (Gibco-BRL), 1:100 L-glutamine and 5% DMSO in the dilution plate (0.5% DMSO final concentration in the assay). Compound/DMSO mixes were added to the cells and incubated for 4 days at 37° C. After 4 days, cells were first assessed for cytotoxicity using alamar Blue (Trek Diagnotstic Systems) for a CC50 reading. The toxicity of compound (CC50) was determined by adding 1/10th volume of alamarBlue to the media incubating the cells. After 4 h, the fluorescence signal from each well was read, with an excitation wavelength at 530 nm and an emission wavelength of 580 nm, using the Cytofluor Series 4000 (Perspective Biosystems). Plates were then rinsed thoroughly with Phosphate-Buffered Saline (PBS) (3 times 150 μl). The cells were lysed with 25 μl of a lysis assay reagent containing an HCV protease substrate (5× cell Luciferase cell culture lysis reagent (Promega #E153A) diluted to 1× with distilled water, NaCl added to 150 mM final, the FRET peptide substrate (as described for the enzyme assay above) diluted to 10 μM final from a 2 mM stock in 100% DMSO. The plate was then placed into the Cytofluor 4000 instrument which had been set to 340 nm excitation/490 nm emissions, automatic mode for 21 cycles and the plate read in a kinetic mode. EC50 determinations were carried out as described for the IC50 determinations.

Where [3] appears, read: Hepatitis C virus, Huh-7, read-out: EC50 Range, HCV replicon cell assay.

Read-outs that look alike come from different tables or passages of the source. Bounds are passed on as bounds.

T1 sequence (P27958 1027-1657, one chain of several): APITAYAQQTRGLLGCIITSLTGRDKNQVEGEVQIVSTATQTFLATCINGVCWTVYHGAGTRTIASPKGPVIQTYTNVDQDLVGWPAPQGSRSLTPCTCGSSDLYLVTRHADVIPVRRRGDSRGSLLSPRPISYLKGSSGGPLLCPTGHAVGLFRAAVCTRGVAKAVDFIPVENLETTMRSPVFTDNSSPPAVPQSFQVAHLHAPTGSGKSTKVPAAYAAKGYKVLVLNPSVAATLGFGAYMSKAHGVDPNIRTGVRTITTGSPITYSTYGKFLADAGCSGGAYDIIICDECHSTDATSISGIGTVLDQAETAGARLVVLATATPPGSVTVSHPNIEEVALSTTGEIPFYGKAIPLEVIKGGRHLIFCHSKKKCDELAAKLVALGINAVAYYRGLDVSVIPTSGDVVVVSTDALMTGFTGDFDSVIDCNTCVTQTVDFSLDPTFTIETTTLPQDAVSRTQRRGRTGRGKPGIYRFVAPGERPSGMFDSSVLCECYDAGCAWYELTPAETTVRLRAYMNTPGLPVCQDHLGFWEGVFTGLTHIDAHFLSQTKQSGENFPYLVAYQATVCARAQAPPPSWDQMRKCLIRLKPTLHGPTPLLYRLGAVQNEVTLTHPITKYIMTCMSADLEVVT

With `CCC1C[C@]1(NC(=O)[C@@H]1C[C@@H](Oc2cc(-c3ccccc3)nc3cc(OC)ccc23)CN1C(=O)C(O)C(C)C)C(=O)NS(=O)(=O)C1CC1` (stereo partly shown) [Example 11], in assay [1], the IC50 was less than 100 nM. Besides, in assay [2] (setting [3]), the concentration for a half-maximal effect (EC50) was 500 to 5000 nM.
On to `C=C[C@@H]1C[C@]1(NC(=O)[C@@H]1C[C@@H](Oc2nccc3cc(OC)ccc23)CN1C(=O)[C@@H](OC(=O)NC(C)(C)C)C(C)(C)C)C(=O)NS(=O)(=O)N(C)C` [Example 58Compound 58], for which the IC50 in assay [1] is less than 100 nM. Besides, the EC50 in assay [2] (setting [3]) was in the range of 500 to 5000 nM.
`C=C[C@@H]1C[C@]1(NC(=O)[C@@H]1C[C@@H](Oc2cc(-c3ccccc3)nc3cc(OC)ccc23)CN1C(=O)[C@@H](OC(=O)NC1CCCC1)C(C)(C)C)C(=O)NS(=O)(=O)C1CC1` [Example 5,Compound 3]: in assay [1], the IC50 was less than 100 nM. For the same compound, in assay [2] (setting [3]), the half-maximal effective concentration (EC50) is less than 500 nM.
Take `CCC1C[C@]1(NC(=O)[C@@H]1C[C@@H](Oc2cc(-c3ccccc3)nc3cc(OC)ccc23)CN1C(=O)C1(O)CC1)C(=O)NS(=O)(=O)C1CC1` (stereo partly shown) [Example 15]: the half-inhibitory concentration (IC50) in assay [1] was 100 to 1000 nM. In addition, the concentration for a half-maximal effect (EC50) in assay [2] (setting [3]) fell in the range of 500 to 5000 nM.
For `C=C[C@@H]1C[C@]1(NC(=O)[C@@H]1C[C@@H](Oc2cc(-c3ccccc3)nc3cc(OC)ccc23)CN1C(=O)[C@@H](O)Cc1c[nH]cn1)C(=O)NS(=O)(=O)C1CC1` [Example 4,Compound 3] the same measures were 100 to 1000 nM and more than 5000 nM.
Consider `C=C[C@@H]1C[C@]1(NC(=O)[C@@H]1C[C@@H](Oc2cc(-c3ccccc3)nc3cc(OC)ccc23)CN1C(=O)C(O)c1ccccc1)C(=O)NS(=O)(=O)C1CC1` (stereo partly shown) [Example 14], for which the IC50 in assay [1] lay within 100 to 1000 nM. Further, the concentration giving a half-maximal response (EC50) in assay [2] (setting [3]) is more than 5000 nM.
Turning to `C=C[C@@H]1C[C@]1(NC(=O)[C@@H]1C[C@@H](Oc2nccc3ccccc23)CN1C(=O)[C@@H](OC(=O)NC(C)C)C(C)(C)C)C(=O)NS(=O)(=O)C1CC1` [Example 26], the IC50 in assay [1] is 100 to 1000 nM. Further, the half-maximal effective concentration (EC50) in assay [2] (setting [3]) lay in the range of 500 to 5000 nM.
Turning to `C=C[C@@H]1C[C@]1(NC(=O)[C@@H]1C[C@@H](Oc2nccc3ccccc23)CN1C(=O)[C@@H](OC(=O)Nc1ccc(OC)cc1)C(C)(C)C)C(=O)NS(=O)(=O)C1CC1` [Example 31], the IC50 in assay [1] lay within 100 to 1000 nM. The concentration giving a half-maximal response (EC50) in assay [2] (setting [3]) fell in the range of 500 to 5000 nM.
Take `C=C[C@@H]1C[C@]1(NC(=O)[C@@H]1C[C@@H](Oc2nc(-c3ccc(OC(F)(F)F)cc3)cc3cc(OC)ccc23)CN1C(=O)[C@@H](OC(=O)NC(C)(C)C)C(C)(C)C)C(=O)NS(=O)(=O)C1CC1` [Example 23]: the half-inhibitory concentration (IC50) in assay [1] is less than 100 nM. In addition, the half-maximal effective concentration (EC50) in assay [2] (setting [3]) fell in the range of 500 to 5000 nM.
On to `C=C[C@@H]1C[C@]1(NC(=O)[C@@H]1C[C@@H](Oc2nccc3ccccc23)CN1C(=O)[C@@H](OC(=O)NC(C)(C)C)C(C)(C)C)C(=O)NS(=O)(=O)C1CC1` [Example 24], for which the concentration for half-maximal inhibition (IC50) in assay [1] lay within 100 to 1000 nM. Moreover, the EC50 in assay [2] (setting [3]) was in the range of 500 to 5000 nM.
Consider `C=C[C@@H]1C[C@]1(NC(=O)[C@@H]1CC(Oc2cc(-c3ccccc3)nc3cc(OC)ccc23)CN1C(=O)[C@@H](O)C(C)(C)C)C(=O)NS(=O)(=O)C1(CC2CC2)CC1` (stereo partly shown) [Example 12], for which the IC50 in assay [1] was less than 100 nM. The concentration for a half-maximal effect (EC50) in assay [2] (setting [3]) was in the range of 500 to 5000 nM.
Turning to `CCC1C[C@]1(NC(=O)[C@@H]1C[C@@H](Oc2cc(-c3ccccc3)nc3cc(OC)ccc23)CN1C(=O)C(O)Cc1c[nH]cn1)C(=O)NS(=O)(=O)C1CC1` (stereo partly shown) [Example 16], in assay [1], the half-maximal inhibitory concentration (IC50) lay within 100 to 1000 nM. Besides, the EC50 in assay [2] (setting [3]) is more than 5000 nM.
On to `C=C[C@@H]1C[C@]1(NC(=O)C1CC(Oc2cc(-c3ccccc3)nc3cc(OC)ccc23)CN1C(=O)[C@@H](O)C(C)(C)C)C(=O)NS(=O)(=O)C1CC1` (stereo partly shown) [Example 4,Compound 8], for which, in assay [1], the IC50 was less than 100 nM. For the same compound, the concentration giving a half-maximal response (EC50) in assay [2] (setting [3]) fell in the range of 500 to 5000 nM.
As to `C=C[C@@H]1C[C@]1(NC(=O)[C@@H]1C[C@@H](Oc2nc(-c3ccc(OC(F)(F)F)cc3)cc3cc(OC)ccc23)CN1C(=O)[C@@H](O)[C@@H](C)CC)C(=O)NS(=O)(=O)C1CC1` [Example 61Compound 61], the IC50 in assay [1] is 100 to 1000 nM. The EC50 in assay [2] (setting [3]) lay in the range of 500 to 5000 nM.
For `C=C[C@@H]1C[C@]1(NC(=O)[C@@H]1C[C@@H](Oc2nccc3ccccc23)CN1C(=O)[C@@H](OC(=O)Nc1ccccc1)C(C)(C)C)C(=O)NS(=O)(=O)C1CC1` [Example 28] the same measures were 100 to 1000 nM and 500 to 5000 nM.
For `C=C[C@@H]1C[C@]1(NC(=O)[C@@H]1C[C@@H](Oc2nccc3cc(OC)ccc23)CN1C(=O)[C@@H](O)C(C)C)C(=O)NS(=O)(=O)C1CC1` (stereo in doubt) [Example 52Compound 52], in assay [1], the IC50 fell in the range of 100 to 1000 nM. Moreover, in assay [2] (read-out: EC50 Range, HCV replicon cell assay), the EC50 is more than 5000 nM.
On to `C=C[C@@H]1C[C@]1(NC(=O)[C@@H]1C[C@@H](Oc2cc(-c3ccccc3)nc3cc(OC)ccc23)CN1C(=O)[C@@H](OC(=O)Nc1ccc(N(C)C)cc1)C(C)(C)C)C(=O)NS(=O)(=O)C1CC1` [Example 5,Compound 7], for which the half-maximal inhibitory concentration (IC50) in assay [1] was 100 to 1000 nM. In assay [2] (setting [3]), the EC50 fell in the range of 500 to 5000 nM.
